Measured values from patent US20120088791A1, “AMIDOBIPIPERIDINECARBOXYLATE M1 ALLOSTERIC AGONISTS, ANALOGS AND DERIVATIVES THEREOF, AND METHODS OF MAKING AND USING SAME” (VANDERBILT UNIVERSITY, priority 2009, published 2012).
pEC50: −log10 of the molar value.

Tests used:
[1] = molecular target: T1, rM4 (Rattus norvegicus, UniProt P08485); assay: Calcium mobilization assay, CHO-K1 cells stably expressing rM4-Gqi5; type: cell-based; settings: selectivity for M1; read-out: potency (EC50) versus M4
T1 construct: expressed in transfected cells; host or cells: CHO-K1 cells, also stably transfected with chimeric G-protein Gqi5
T1 sequence (P08485 1-478): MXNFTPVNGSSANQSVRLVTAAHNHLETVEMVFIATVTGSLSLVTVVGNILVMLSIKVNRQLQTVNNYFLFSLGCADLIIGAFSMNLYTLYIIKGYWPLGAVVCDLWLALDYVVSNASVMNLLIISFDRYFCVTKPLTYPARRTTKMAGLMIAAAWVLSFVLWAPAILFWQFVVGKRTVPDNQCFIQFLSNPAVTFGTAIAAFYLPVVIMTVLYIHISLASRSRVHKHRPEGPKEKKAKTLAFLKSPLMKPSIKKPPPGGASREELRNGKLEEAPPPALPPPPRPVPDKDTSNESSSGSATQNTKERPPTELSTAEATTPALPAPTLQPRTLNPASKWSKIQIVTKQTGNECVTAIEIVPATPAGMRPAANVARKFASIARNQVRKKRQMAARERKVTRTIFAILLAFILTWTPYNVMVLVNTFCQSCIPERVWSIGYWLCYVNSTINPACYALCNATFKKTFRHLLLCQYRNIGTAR
Description: (§1) Cell culture and transfections. Chinese hamster ovary (CHO-K1) cells stably expressing rat (r)M1 were purchased from the American Type Culture Collection and cultured according to their indicated protocol. CHO cells stably expressing human (h)M2, hM3, and hM5 were used and described previously (Levey et al., 1991); rM4 cDNA, provided by T. I. Bonner (National Institutes of Health, Bethesda, Md.), was used to stably transfect CHO-K1 cells purchased from the American Type Culture Collection using Lipofectamine2000. To make stable hM2 and rM4 cell lines for use in calcium mobilization assays, these cells also were stably transfected with a chimeric G-protein (Gqi5) using Lipofectamine 2000. M1, hM3, and hM5 cells were grown in Ham's F-12 medium containing 10% heat-inactivated fetal bovine serum (FBS), 20 mM HEPES, and 50 μg/ml G418 sulfate. hM2-Gqi5 cells were grown in the same medium also containing 500 μg/ml Hygromycin B. Stable rM4-Gqi5 cells were grown in DMEM containing 10% heat-inactivated FBS, 20 mM HEPES, 400 μg/ml G418 sulfate, and 500 μg/ml Hygromycin B. The rat M1 Y381A orthosteric mutant receptor cDNA was generated using the Quik-Change site-directed mutagenesis kit (Stratagene) and verified by sequencing. […]
(§2) Calcium mobilization assays. […] Calcium flux was measured over time as an increase in fluorescence (fold over basal) using the Flexstation plate reader (Molecular Devices).

[2] = molecular target: T2, rM1 (Rattus norvegicus, UniProt P08482); assay: Calcium mobilization assay, CHO-K1 cells stably expressing rM1; type: cell-based; settings: Table 1, R-enantiomers; for Emax: RM1, read-out: Efficacy (% Max ACh); for pEC50: agonist-evoked calcium flux, read-out: Potency (EC50)
T2 construct: host or cells: CHO-K1
T2 sequence (P08482 1-460): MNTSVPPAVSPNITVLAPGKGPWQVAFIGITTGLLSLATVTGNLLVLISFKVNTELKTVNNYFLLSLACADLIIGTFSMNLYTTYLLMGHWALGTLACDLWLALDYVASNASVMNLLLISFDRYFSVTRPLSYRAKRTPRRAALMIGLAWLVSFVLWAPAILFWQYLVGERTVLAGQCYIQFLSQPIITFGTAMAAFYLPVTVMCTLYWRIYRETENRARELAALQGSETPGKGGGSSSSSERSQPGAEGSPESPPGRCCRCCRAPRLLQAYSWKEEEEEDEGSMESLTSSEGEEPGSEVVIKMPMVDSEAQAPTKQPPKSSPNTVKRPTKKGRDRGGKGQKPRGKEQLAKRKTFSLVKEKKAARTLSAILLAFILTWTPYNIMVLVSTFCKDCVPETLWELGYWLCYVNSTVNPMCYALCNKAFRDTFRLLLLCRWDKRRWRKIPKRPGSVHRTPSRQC
Description: Cell culture and transfections. Chinese hamster ovary (CHO-K1) cells stably expressing rat (r)M1 were purchased from the American Type Culture Collection and cultured according to their indicated protocol. CHO cells stably expressing human (h)M2, hM3, and hM5 were used and described previously (Levey et al., 1991); rM4 cDNA, provided by T. I. Bonner (National Institutes of Health, Bethesda, Md.), was used to stably transfect CHO-K1 cells purchased from the American Type Culture Collection using Lipofectamine2000. To make stable hM2 and rM4 cell lines for use in calcium mobilization assays, these cells also were stably transfected with a chimeric G-protein (Gqi5) using Lipofectamine 2000. M1, hM3, and hM5 cells were grown in Ham's F-12 medium containing 10% heat-inactivated fetal bovine serum (FBS), 20 mM HEPES, and 50 μg/ml G418 sulfate. hM2-Gqi5 cells were grown in the same medium also containing 500 μg/ml Hygromycin B. Stable rM4-Gqi5 cells were grown in DMEM containing 10% heat-inactivated FBS, 20 mM HEPES, 400 μg/ml G418 sulfate, and 500 μg/ml Hygromycin B. The rat M1 Y381A orthosteric mutant receptor cDNA was generated using the Quik-Change site-directed mutagenesis kit (Stratagene) and verified by sequencing. CHO-K1 cells were stably transfected with this cDNA using Lipofectamine2000 and screened for expression based on calcium mobilization in response to the allosteric M1 agonist N-desmethylclozapine.
Calcium mobilization assays. For measurement of agonist-evoked increases in intracellular calcium, CHO-K1 cells stably expressing muscarinic receptors were plated in 100 μl of growth medium at 5×10^4 (rM1, hM3, and hM5) or 6×10^4 cells per well (rM1 Y381A, hM2, and rM4) in Costar 96-well black-walled, tissue culture (TC)-treated, clear-bottom plates (Fisher). Cells were incubated overnight at 37° C. and 5% CO2. The next day, medium was removed from the cells, and they were incubated with 50 μl of 2 μM Fluo-4 AM diluted in assay buffer [HBSS (Invitrogen) supplemented with 20 mM HEPES and 2.5 mM probenecid, pH 7.4] for 1 h at 37° C. Dye was removed and replaced with 45 μl of assay buffer. Agonists were diluted into assay buffer at a 2× concentration and applied to cells using the automated system at 19 s into the 130 s protocol. Calcium flux was measured over time as an increase in fluorescence (fold over basal) using the Flexstation plate reader (Molecular Devices).

[3] = molecular target: T3, hM3 (Homo sapiens, UniProt P20309); assay: Calcium mobilization assay, CHO cells stably expressing hM3; type: cell-based; settings: selectivity for M1; read-out: potency (EC50) versus M3
T3 construct: expressed in transfected cells; host or cells: CHO cells
T3 sequence (P20309 whole entry): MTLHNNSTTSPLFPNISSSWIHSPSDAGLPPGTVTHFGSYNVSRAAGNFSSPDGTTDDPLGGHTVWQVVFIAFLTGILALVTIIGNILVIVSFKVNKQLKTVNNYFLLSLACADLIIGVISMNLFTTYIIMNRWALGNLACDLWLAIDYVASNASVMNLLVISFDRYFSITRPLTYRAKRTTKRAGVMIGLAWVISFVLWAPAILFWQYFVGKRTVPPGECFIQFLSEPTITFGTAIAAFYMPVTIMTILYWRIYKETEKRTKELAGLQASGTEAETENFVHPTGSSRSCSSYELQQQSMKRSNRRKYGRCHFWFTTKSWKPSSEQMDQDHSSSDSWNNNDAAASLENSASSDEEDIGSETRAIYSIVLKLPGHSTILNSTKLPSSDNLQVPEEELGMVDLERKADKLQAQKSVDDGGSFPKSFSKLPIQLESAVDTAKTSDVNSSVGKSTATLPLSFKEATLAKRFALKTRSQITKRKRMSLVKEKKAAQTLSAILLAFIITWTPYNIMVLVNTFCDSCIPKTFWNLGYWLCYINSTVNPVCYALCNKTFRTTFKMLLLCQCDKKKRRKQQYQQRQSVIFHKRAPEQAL
Description: as §1, §2

[4] = molecular target: T4, hM2 (Homo sapiens, UniProt P08172); assay: Calcium mobilization assay, CHO cells stably expressing hM2-Gqi5; type: cell-based; settings: selectivity for M1; read-out: potency (EC50) versus M2
T4 construct: expressed in transfected cells; host or cells: CHO cells, also stably transfected with chimeric G-protein Gqi5
T4 sequence (P08172 1-466): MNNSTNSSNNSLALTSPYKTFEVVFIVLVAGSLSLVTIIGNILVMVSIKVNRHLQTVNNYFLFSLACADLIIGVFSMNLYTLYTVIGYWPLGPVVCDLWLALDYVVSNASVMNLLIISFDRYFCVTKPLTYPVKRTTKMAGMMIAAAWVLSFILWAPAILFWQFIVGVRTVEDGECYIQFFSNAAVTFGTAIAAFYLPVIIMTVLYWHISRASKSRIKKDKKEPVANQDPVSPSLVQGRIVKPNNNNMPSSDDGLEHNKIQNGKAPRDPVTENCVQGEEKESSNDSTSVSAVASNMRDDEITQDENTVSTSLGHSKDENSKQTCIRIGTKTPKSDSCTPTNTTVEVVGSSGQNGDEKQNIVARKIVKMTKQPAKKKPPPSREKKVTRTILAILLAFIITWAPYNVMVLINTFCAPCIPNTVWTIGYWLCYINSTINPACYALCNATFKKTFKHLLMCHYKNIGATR
Description: as §1, §2

[5] = molecular target: T5, hM5 (Homo sapiens, UniProt P08912); assay: Calcium mobilization assay, CHO cells stably expressing hM5; type: cell-based; settings: selectivity for M1; read-out: potency (EC50) versus M5
T5 construct: expressed in transfected cells; host or cells: CHO cells
T5 sequence (P08912 1-532): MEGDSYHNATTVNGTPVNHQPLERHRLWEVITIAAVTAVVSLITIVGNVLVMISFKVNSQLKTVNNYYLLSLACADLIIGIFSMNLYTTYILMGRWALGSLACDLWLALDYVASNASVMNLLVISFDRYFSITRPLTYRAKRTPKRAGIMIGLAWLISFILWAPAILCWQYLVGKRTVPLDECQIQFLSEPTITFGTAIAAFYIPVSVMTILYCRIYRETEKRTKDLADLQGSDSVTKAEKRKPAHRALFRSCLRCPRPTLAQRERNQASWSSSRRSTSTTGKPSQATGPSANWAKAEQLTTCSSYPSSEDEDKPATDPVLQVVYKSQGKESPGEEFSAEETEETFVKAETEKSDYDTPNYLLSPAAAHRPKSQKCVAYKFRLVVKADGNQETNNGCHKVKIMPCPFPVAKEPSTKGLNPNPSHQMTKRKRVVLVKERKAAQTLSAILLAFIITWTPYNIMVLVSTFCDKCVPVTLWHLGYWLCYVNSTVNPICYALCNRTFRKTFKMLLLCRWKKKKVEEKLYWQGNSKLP
Description: as §1, §2

[6] = preclinical and clinical studies; cited from earlier work
[7] = tested on: Aβ 1-40 and 1-42 production; settings: in vitro; cited from earlier work
[8] = multiple preclinical models; cited from earlier work

SMILES | pEC50 [1] | Emax [2] [%] | pEC50 [2] | pEC50 [3] | pEC50 [4] | pEC50 [5] | efficacy with regard to positive, negative and cognitive symptoms [6] | effect on Aβ 1-40 and 1-42 production [7] | efficacy in preclinical models of schizophrenia [8]
CCOC(=O)N1CCC(N2CCC[C@@H](NC(=O)c3ccccc3)C2)CC1 [(R)-ethyl 3-benzamido-1,4′-bipiperidine-1′-carboxylate] | < 4.30 | 91 | 6.90 | < 4.30 | < 4.30 | < 4.30 | – | – | –
CCOC(=O)N1CCC(N2CCC[C@@H](NC(=O)c3ccccc3C)C2)CC1 [(R)-ethyl 3-(2-methylbenzamido)-1,4′-bipiperidine-1′-carboxylate] | < 4.30 | 96 | 7.06 | < 4.30 | < 4.30 | < 4.30 | – | – | –
CCCCCCOc1nsnc1C1=CCCN(C)C1 [Xanomeline] | – | – | – | – | – | – | proved efficacious | – | –
Cc1ccccc1CN1CCC(N2CCC(n3c(=O)[nH]c4ccccc43)CC2)CC1 [TBPB] | – | – | – | – | – | – | – | decrease Aβ 1-40 and 1-42 production in vitro | demonstrated efficacy
